Results taken from article PMC5138282, “Glyphosate-Resistant Parthenium hysterophorus in the Caribbean Islands: Non Target Site Resistance and Target Site Resistance in Relation to Resistance Levels” (Frontiers in Plant Science, 2016).
Like-named read-outs stand apart in the source and are kept apart here.

How the values were obtained:
[1] = tested on: 5-enolpyruvylshikimate-3-phosphate synthase (EPSPS), P. hysterophorus accessions from Cuba; settings: read-out: I50 (μM)^a; accession Cu-R1; natural mutant, native extract, other EPSPS alleles/copies not excluded; buffer as for Cu-S; stated gain
Excerpt: phosphate release (EnzCheck phosphate assay kit), leaf extract on 5-enolpyruvylshikimate-3-phosphate synthase (EPSPS), P. hysterophorus accessions from Cuba

[2] = tested on: 5-enolpyruvylshikimate-3-phosphate synthase (EPSPS), P. hysterophorus accessions from Cuba; assay: phosphate release (EnzCheck phosphate assay kit), leaf extract; format: biochemical, Parthenium hysterophorus; settings: read-out: I50 (μM)^a
[3] = tested on: 5-enolpyruvylshikimate-3-phosphate synthase (EPSPS), P. hysterophorus accessions from Dominican Republic; assay: as above; format: biochemical, Parthenium hysterophorus; settings: buffer as for Cu-S, read-out: I50 (μM)^a
[4] = tested on: 5-enolpyruvylshikimate-3-phosphate synthase (EPSPS), P. hysterophorus accessions from Dominican Republic; settings: read-out: I50 (μM)^a, natural mutant, native extract, other EPSPS alleles/copies not excluded, buffer as for Cu-S, stated gain
Excerpt: phosphate release (EnzCheck phosphate assay kit), leaf extract on 5-enolpyruvylshikimate-3-phosphate synthase (EPSPS), P. hysterophorus accessions from Dominican Republic

`O=C(O)CNCP(=O)(O)O` [glyphosate, (N-phosphonomethyl)-glycine] showed an IC50 [1] of 646 ± 35.8 µM, an IC50 ([2]; accession Cu-R2 (resistant plants, no Pro106 change), buffer as for Cu-S) of 18.9 ± 1.4 µM and an IC50 ([2]; accession Cu-R3 (resistant plants, no Pro106 change), buffer as for Cu-S) of 17.4 ± 2.8 µM. The IC50 ([2]; accession Cu-S (susceptible), 100 mM MOPS, 1 mM MgCl2, 10% glycerol, 2 mM sodium molybdate, 200 mM NaF) was 13.6 ± 2.2 µM, the IC50 ([3]; accession Do-R3 (resistant plants, no Pro106 change)) was 22.6 ± 1.5 µM and the IC50 ([3]; accession Do-R4 (resistant plants, no Pro106 change)) was 20.8 ± 6.1 µM. It also gave an IC50 ([3]; accession Do-S (susceptible)) of 18.5 ± 5.7 µM, an IC50 ([4]; accession Do-R1) of 468 ± 22 µM and an IC50 ([4]; accession Do-R2) of 411 ± 26.1 µM.
